Results reported in patent publication US7722863B2, “Use of granzyme b as an hsp70/hsp70 peptide dependent inducer of apoptosis in tumor cells” (Multimmune GmbH, priority 2002, dated 2010).

What was measured:
[1] = system: Hsp70 membrane-negative CX− cells; assay: Annexin V-FITC apoptosis assay (flow cytometry); format: cell-based, human; conditions: for apoptosis in CX− cells: camptothecin 4 μg/ml or granzyme B 6 ng/ml; for amount of Annexin V-FITC positively stained CX− cells / fold increase of Annexin V-FITC positively stained CX− cells: camptothecin 4 μg/ml; for fold increase of Annexin V-FITC positively stained CX− cells: versus untreated
Experimental: (§1) Exponentially growing tumor cells (day 1 after cell passage) were used for granzyme B, camptothecin treatment and as targets in cytotoxicity assays.
(§2) Stock solutions of camptothecin (4 mg/ml, Sigma, Munich, Germany) were diluted in DMSO and stored at 4° C. in the dark. Granzyme B (6 ng/ml, Hölzel Diagnostics, Cologne, Germany) solutions were freshly prepared directly before usage. Exponentially growing cells (0.5-1.5×10^6/ml) were incubated either with camptothecin at a final concentration of 4 μg/ml or with purified, enzymatically active granzyme B (10 ng/ml, 1 μg/ml, 2 μg/ml; 4 μg/ml) (Shi et. al. (2000) Methods in Enzymology 322, 125) for 10 min, and 30 min either at 4° C. or at 37° C. After washing in RPMI-1640 medium binding and uptake was determined in nonpermeabilized and permeabilized tumor cells by flow cytometry and fluorescence microscopy on a Axioscop 25 scanning microscope (Zeiss, Jena, Germany) equipped with a 40× objective and standard filters. Images were treated by multiplicative shading correction using the software Axiovison (Zeiss Vison, Jena, Germany). Granzyme B was visualized in red by using the HC2-PE antibody.
(§3) Apoptotic Cell Death was Determined after Incubation of Tumor Cells with 6 ng/ml Granzyme B for 4 h, 12 h, and 24 h at 37° C. and Washing in RPMI-1640 Medium by Different Apoptosis Assays, as Described Below. Apoptosis Assays
(§4) Annexin V-FITC staining: Briefly, cells were washed twice in Hepes buffer containing 5 mM CaCl2 and incubated with Annexin V-FITC (Roche) for 10 min at room temperature. Annexin V-FITC positively stained cells were measured on a FACSCalibur flow cytometer (Becton Dickinson, Heidelberg, Germany).
(§5) The preceding findings posed the question whether purified granzyme B can induce apoptosis of tumor cells that present Hsp70 on their cell surface. […] As a positive control for apoptosis all cell types were incubated with the topoisomerase inhibitor camptothecin at a concentration of 4 μg/ml. Apoptosis was determined by Annexin V-FITC staining measured by FACS (FACSCalibur, Becton Dickinson, Heidelberg, Germany), DAPI staining and mitochondrial cytochrome c release. Apoptosis was not detected in CX+ and CX− cells incubated with camptothecin (cam) or granzyme B (grB) for 4 h incubation (FIG. 3A). […] It appeared that the colon carcinoma sublines CX+/CX− are better protected towards a camptothecin-mediated cell death as compared to the pancreas carcinoma sublines Colo+/Colo−.

[2] = system: Hsp70 membrane-negative Colo− cells; assay: Annexin V-FITC apoptosis assay (flow cytometry); format: cell-based, human; conditions: 12 h and 24 h; camptothecin 4 μg/ml or granzyme B 6 ng/ml
Experimental: as §1, §2, §3, §4, §5

[3] = system: Hsp70 membrane-positive CX+ cells; assay: Annexin V-FITC apoptosis assay (flow cytometry); format: cell-based, human; conditions: camptothecin 4 μg/ml or granzyme B 6 ng/ml; for fold increase of Annexin V-FITC positively stained CX+ cells: versus untreated
Experimental: as §1, §2, §3, §4, §5

[4] = system: Hsp70 membrane-positive Colo+ cells; assay: Annexin V-FITC apoptosis assay (flow cytometry); format: cell-based, human; conditions: 12 h and 24 h; camptothecin 4 μg/ml
Experimental: as §1, §2, §3, §4, §5

CX+ tumor cells [5] = assay: Cytochrome c release, quantitative immunoassay; format: cell-based, human; conditions: camptothecin 4 μg/ml or granzyme B 6 ng/ml, 24 h
Experimental: (§6) Cytochrome c release: Cytochrome c release was determined using a quantitative immunoassay; (DCDCO, R&D Systems, Wiesbaden, Germany). Briefly, either untreated, camptothecin (4 μg/ml) or granzyme B (6 ng/ml) treated CX+ and CX− cells (1.5×10^6/ml) were washed in PBS and treated with lysis buffer for 1 h at room temperature. Following centrifugation at 1,000 g for 15 min supernatants were removed and 200 μl of a 1:100, 1:250, and a 1:500 dilution was used for a sandwich ELISA. Following incubation with substrate solution in the dark for 30 min the reaction was stopped. The optical density of each well was determined on an ELISA reader at 450 nm. The amount of cytochrome c was determined according to a calibration curve.
(§7) As an additional test for apoptotic cell death, cytochrome c release was measured following incubation of CX+ and CX− cells with granzyme B for 24 h. As summarized in Table I, following incubation with granzyme B (6 ng/ml) for 24 h, cytochrome c concentration was elevated from 0.382 mg/ml to 0.690 mg/ml (1.8-fold) in CX+ cells. […] It was propose that the trigger of apoptosis by granzyme B is mediated via the extracellular exposed Hsp70 epitope TKD.

CX− tumor cells [6] = assay: Cytochrome c release, quantitative immunoassay; format: cell-based, human; conditions: camptothecin 4 μg/ml or granzyme B 6 ng/ml, 24 h
Experimental: as §6, §7

CX+ tumor cells [7] = assay: DAPI staining of nuclear DNA fragmentation; format: cell-based, human; conditions: 24 h, camptothecin 4 μg/ml or granzyme B 6 ng/ml
Experimental: (§8) DAPI-staining: Methanol/aceton fixed cells (0.1×10^6 cells/100 μl) were incubated with 0.5 μg/μl 4,6-diamino-2-phenylindole (DAPI) in PBS/glycerol (3:1), for 15 min in the dark. Following washing in PBS the cells were mounted with Fluorescent Mounting Medium (Dako, Glostrup, Denmark) and than analysed for fluorescence using a Zeiss model Axioscop 2 scanning microscope (Zeiss Jena, Germany) equipped with a 40× objective and standard filters. Apoptosis was visualized with DAPI-staining in 50 cells, each. Images were treated by multiplicative shading correction using software Axiovision (Zeiss Vision Jena, Germany).

CX− tumor cells [8] = assay: DAPI staining of nuclear DNA fragmentation; format: cell-based, human; conditions: 24 h, camptothecin 4 μg/ml or granzyme B 6 ng/ml
Experimental: as §8

Colo+ tumor cells = assay: DAPI staining of nuclear DNA fragmentation; format: cell-based, human; conditions: 24 h, camptothecin 4 μg/ml or granzyme B 6 ng/ml
Experimental: as §8

Colo− tumor cells = assay: DAPI staining of nuclear DNA fragmentation; format: cell-based, human; conditions: 24 h, camptothecin 4 μg/ml or granzyme B 6 ng/ml
Experimental: as §8

[9] = system: Hsp70 membrane-positive tumor target cells; conditions: Hsp70-protein 10 to 50 μg/ml; cited from earlier work

Compound: CC[C@@]1(O)C(=O)OCc2c1cc1n(c2=O)Cc2cc3ccccc3nc2-1 [camptothecin, reference compound]
- apoptosis in CX− cells ([1]; 4 h incubation): not detected
- amount of Annexin V-FITC positively stained CX− cells ([1]; 12 h, untreated 12.1%): 19.8%
- fold increase of Annexin V-FITC positively stained CX− cells ([1]; 12 h): 1.6 fold
- apoptosis in CX− cells ([1]; 12 h and 24 h): underwent apoptosis
- amount of Annexin V-FITC positively stained CX− cells ([1]; 24 h, untreated 11.9%): 25.1%
- fold increase of Annexin V-FITC positively stained CX− cells ([1]; 24 h): 2.1 fold
- apoptosis in Colo− cells [2]: underwent apoptosis
- apoptosis in CX+ cells ([3]; 4 h incubation): not detected
- amount of Annexin V-FITC positively stained CX+ cells ([3]; 12 h, untreated 16.6%): 28.0%
- fold increase of Annexin V-FITC positively stained CX+ cells ([3]; 12 h): 1.7 fold
- apoptosis in CX+ cells ([3]; 12 h and 24 h): underwent apoptosis
- amount of Annexin V-FITC positively stained CX+ cells ([3]; 24 h, untreated 18%): 39%
- fold increase of Annexin V-FITC positively stained CX+ cells ([3]; 24 h): 2.1 fold
- apoptosis in Colo+ cells [4]: underwent apoptosis
- cytochrome c fold increase (CX+ tumor cells [5]; control 1.0): 1.5 fold
- cytochrome c (CX+ tumor cells [5]; mean of 4 experiments ± S.E., control 0.382 ± 0.02): 0.555 ± 0.04 mg/mL
- cytochrome c fold increase (CX− tumor cells [6]; control 1.0): 1.5 fold
- cytochrome c (CX− tumor cells [6]; mean of 4 experiments ± S.E., control 0.452 ± 0.02): 0.672 ± 0.02 mg/mL
- nuclear DNA fragmentation (DAPI) (CX+ tumor cells [7]): exhibited nuclear fragmentation
- nuclear DNA fragmentation (DAPI) (CX− tumor cells [8]): exhibited nuclear fragmentation
- nuclear DNA fragmentation (DAPI) (Colo+ tumor cells): exhibited nuclear fragmentation
- nuclear DNA fragmentation (DAPI) (Colo− tumor cells): exhibited nuclear fragmentation

Compound: Hsp70-protein: recombinant human Hsp70-protein (Stressgen)
- cytolytic activity of NK cells against Hsp70 membrane-positive tumor target cells [9]: increased cytolytic activity
